From patent US8530487B1 (priority 2009, dated 2013)

Target: human TRPA1 (Homo sapiens, UniProt O75762)
Experiment: cell-based
Conditions: not given

Sequence of human TRPA1 (O75762 whole entry): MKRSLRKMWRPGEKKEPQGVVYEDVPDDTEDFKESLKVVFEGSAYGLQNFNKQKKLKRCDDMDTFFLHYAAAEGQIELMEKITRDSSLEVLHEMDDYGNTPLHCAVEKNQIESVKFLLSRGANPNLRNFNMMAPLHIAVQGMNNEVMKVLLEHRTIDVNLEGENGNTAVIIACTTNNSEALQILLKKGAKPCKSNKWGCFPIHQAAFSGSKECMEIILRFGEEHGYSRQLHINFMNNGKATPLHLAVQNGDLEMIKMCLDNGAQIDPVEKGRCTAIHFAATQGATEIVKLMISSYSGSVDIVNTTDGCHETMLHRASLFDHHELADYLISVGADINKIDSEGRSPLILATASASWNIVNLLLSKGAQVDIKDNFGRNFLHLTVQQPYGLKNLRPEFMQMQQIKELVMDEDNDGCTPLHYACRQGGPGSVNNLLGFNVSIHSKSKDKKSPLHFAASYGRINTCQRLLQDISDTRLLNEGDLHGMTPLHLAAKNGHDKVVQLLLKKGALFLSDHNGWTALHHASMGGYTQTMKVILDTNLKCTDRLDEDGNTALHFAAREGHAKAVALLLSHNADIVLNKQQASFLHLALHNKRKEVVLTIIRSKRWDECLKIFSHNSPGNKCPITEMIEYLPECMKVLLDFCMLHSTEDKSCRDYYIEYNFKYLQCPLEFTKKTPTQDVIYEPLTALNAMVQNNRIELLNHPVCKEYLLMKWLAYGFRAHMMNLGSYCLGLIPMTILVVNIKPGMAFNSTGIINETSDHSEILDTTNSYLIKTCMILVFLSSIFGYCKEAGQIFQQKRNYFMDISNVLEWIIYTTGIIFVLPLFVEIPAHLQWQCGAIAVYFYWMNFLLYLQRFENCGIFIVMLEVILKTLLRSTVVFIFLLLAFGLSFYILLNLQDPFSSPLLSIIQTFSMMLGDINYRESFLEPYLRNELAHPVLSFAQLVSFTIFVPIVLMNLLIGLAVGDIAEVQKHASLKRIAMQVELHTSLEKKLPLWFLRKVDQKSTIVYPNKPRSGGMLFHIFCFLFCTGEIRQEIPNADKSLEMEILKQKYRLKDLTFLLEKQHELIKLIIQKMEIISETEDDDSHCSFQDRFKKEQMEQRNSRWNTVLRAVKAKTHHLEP

Row | SMILES | IC50 [nM]
1 | O=C1C2=C(NC(=S)NC2c2ccccc2)c2ccc(O)cc21 (stereo not shown) [Compound 203] | > 1000
2 | COc1ccccc1C1NC(=S)NC2=C1C(=O)c1ccccc12 (stereo not shown) [Compound 40] | > 1000
3 | O=C1C2=C(NC(=S)NC2c2ccccc2O)c2ccccc21 (stereo not shown) [Compound 15] | < 100
4 | O=C1C2=C(NC(=S)NC2c2ccccc2)c2ccccc21 (stereo not shown) [Compound 201] | < 100

Same assay, conditions: read-out: Activity (IC50)

Row | SMILES | IC50 [nM]
5 | O=C1NC2=C(C(=O)c3ccccc32)C(c2cc(O)ccc2Br)N1 (stereo not shown) [Compound 102] | 100 to 500
6 | C=CCOc1cccc(C2NC(=O)N(CC)C3=C2C(=O)c2ccccc23)c1 (stereo not shown) [Compound 630] | < 100
7 | CCCOc1cccc(C2NC(=NC#N)NC3=C2C(=O)c2ccccc23)c1 (stereo not shown) [Compound 960] | > 1000
8 | N#CCN1C(=O)NC(c2cccc(OC(F)F)c2)C2=C1c1ccccc1C2=O (stereo not shown) [Compound 618] | < 100
9 | C=CCOc1cccc(C2NC(=O)NC3=C2C(=O)c2ccccc23)c1OC (stereo not shown) [Compound 455] | > 1000
10 | CCOc1cccc(C2NC(=S)N(C)C3=C2C(=O)c2ccccc23)c1 (stereo not shown) [Compound 311] | < 100
11 | O=C1C2=C(NC(=S)NC2c2ccccc2)c2ccccc21 (stereo not shown) [Compound 301] | < 100
12 | CCN1C(=O)NC(c2cccc(OC(F)F)c2)C2=C1c1ccccc1C2=O (stereo not shown) [Compound 619] | 100 to 500
13 | C=CCC(F)c1cccc(C2NC(=O)NC3=C2C(=O)c2cccnc23)c1 (stereo not shown) [Compound 905] | < 100
14 | O=C1NC2=C(C(=O)c3cc(O)ccc32)C(c2cc(O)ccc2Br)N1 (stereo not shown) [Compound 105] | > 1000
15 | O=C1NC2=C(C(=O)c3ccc(O)cc32)C(c2cc(O)ccc2Br)N1 (stereo not shown) [Compound 106] | > 1000
16 | C=CCOc1cccc(C2NC(=O)N(Cc3ccncc3)C3=C2C(=O)c2ccccc23)c1 (stereo not shown) [Compound 635] | > 1000
17 | O=C1NC2=C(C(=O)c3ccccc32)C(c2cccc(Cl)c2Cl)N1 (stereo not shown) [Compound 446] | > 1000
18 | C=CCOc1cccc(C2NC(=O)N(Cc3ccccc3)C3=C2C(=O)c2ccccc23)c1 (stereo not shown) [Compound 632] | < 100
19 | Cc1ccc2c(c1)C(=O)C1=C2NC(=O)NC1c1cc(O)ccc1Br (stereo not shown) [Compound 107] | 500 to 1000
20 | O=C1C2=C(c3ccccc31)N(Cc1ccccc1)C(=O)NC2c1cccc(OC(F)F)c1 (stereo not shown) [Compound 620] | < 100
21 | CCN(C(C)=O)c1cccc(C2NC(=O)NC3=C2C(=O)c2ccccc23)c1 (stereo not shown) [Compound 443] | > 1000
22 | C=CCOc1ccc(Cl)c(C2NC(=O)NC3=C2C(=O)c2ccccc23)c1 (stereo not shown) [Compound 415] | 100 to 500
23 | CCCOc1cccc(C2NC(=O)NC3=C2C(=O)c2cccnc23)c1 (stereo not shown) [Compound 904] | < 100
24 | C=CCOc1cccc(C2NC(=O)N(C)C3=C2C(=O)c2ccccc23)c1C(F)(F)F (stereo not shown) [Compound 643] | > 1000

Row | SMILES | IC50 [nM]
25 | CCCOc1cc(F)cc(C2NC(=O)NC3=C2C(=O)c2ccccc23)c1F (stereo not shown) [Compound 404] | < 100
26 | CCOc1cccc(C2NC(=O)NC3=C2C(=O)c2ccccc23)c1F (stereo not shown) [Compound 616] | < 100
27 | CCOC(=O)CN1C(=O)NC(c2cccc(OCC)c2)C2=C1c1ccccc1C2=O (stereo not shown) [Compound 608] | < 100
28 | COc1cccc(C2NC(=O)NC3=C2C(=O)c2ccccc23)c1OC (stereo not shown) [Compound 438] | > 1000
29 | CCOc1cccc(C2NC(=O)N(CC#N)C3=C2C(=O)c2ccccc23)c1 (stereo not shown) [Compound 601] | < 100
30 | C=CCN1C(=O)NC(c2cccc(OCC)c2)C2=C1c1ccccc1C2=O (stereo not shown) [Compound 614] | 100 to 500
31 | CCCOc1cccc(C2NC(=O)N(CC#N)C3=C2C(=O)c2ccccc23)c1 (stereo not shown) [Compound 615] | < 100
32 | O=C1NC2=C(C(=O)c3ccccc32)C(c2cccc(Cl)c2)N1 (stereo not shown) [Compound 431] | > 1000
33 | COCCN1C(=O)NC(c2cccc(OC)c2)C2=C1c1ccccc1C2=O (stereo not shown) [Compound 627] | 100 to 500
34 | C=CCOc1ccc(Cl)c(C2NC(=O)N(C)C3=C2C(=O)c2ccccc23)c1 (stereo not shown) [Compound 638] | < 100
35 | N#CN=C1NC2=C(C(=O)c3ccccc32)C(c2cccc(OCC3CC3)c2)N1 (stereo not shown) [Compound 951] | > 1000
36 | CN1C(=S)NC(c2ccccc2)C2=C1c1cccc(O)c1C2=O (stereo not shown) [Compound 313] | > 1000
37 | CCOc1cccc(C2NC(=O)N(CC(=O)OC(C)(C)C)C3=C2C(=O)c2ccccc23)c1 (stereo not shown) [Compound 609] | 500 to 1000
38 | CCCOc1cccc(C2NC(=O)N(C)C3=C2C(=O)c2ccccc23)c1 (stereo not shown) [Compound 645] | < 100
39 | CCOc1cccc(C2NC(=O)NC3=C2C(=O)c2cccnc23)c1F (stereo not shown) [Compound 901] | 100 to 500
40 | CCOc1cccc(C2NC(=O)NC3=C2C(=O)c2ccccc23)c1F (stereo not shown) [Compound 409] | < 100
41 | CCOc1cccc(C2NC(=O)N(Cc3ccccc3)C3=C2C(=O)c2ccccc23)c1 (stereo not shown) [Compound 606] | < 100
42 | O=C1NC2=C(C(=O)c3ccccc32)C(c2cccc(C(F)(F)F)c2)N1 (stereo not shown) [Compound 452] | > 1000
43 | O=C1NC2=C(C(=O)c3ccccc32)C(c2cccc(OCC3CC3)c2Cl)N1 (stereo not shown) [Compound 419] | 100 to 500
44 | CCOc1cccc(C2NC(=O)N(Cc3cccnc3)C3=C2C(=O)c2ccccc23)c1 (stereo not shown) [Compound 612] | 100 to 500

Row | SMILES | IC50 [nM]
45 | CCCC(O)c1cccc(C2NC(=O)NC3=C2C(=O)c2cccnc23)c1 (stereo not shown) [Compound 908] | 100 to 500
46 | O=C1NC2=C(C(=O)c3ccccc32)C(c2cccc(OC(=O)C3CC3)c2)N1 (stereo not shown) [Compound 459] | > 1000
47 | O=C1NC2=C(C(=O)c3cc(Cl)ccc32)C(c2cc(O)ccc2Br)N1 (stereo not shown) [Compound 103] | > 1000
48 | CCOc1cccc(C2NC(=O)NC3=C2C(=O)c2ccccc23)n1 (stereo not shown) [Compound 504] | 500 to 1000
49 | CCOc1cccc(C2NC(=S)NC3=C2C(=O)c2ccccc23)c1 (stereo not shown) [Compound 310] | < 100
50 | COc1cccc(C2NC(=O)N(CCO)C3=C2C(=O)c2ccccc23)c1 (stereo not shown) [Compound 626] | > 1000
51 | CCCOc1cccc(C2NC(=O)NC3=C2C(=O)c2ccccc23)c1 (stereo not shown) [Compound 407] | < 100
52 | CC(F)(F)Oc1cccc(C2NC(=O)NC3=C2C(=O)c2ccccc23)c1 (stereo not shown) [Compound 450] | > 1000
53 | O=C1NC2=C(C(=O)c3ccccc32)C(c2cccc(OC(F)(F)C(F)F)c2)N1 (stereo not shown) [Compound 451] | > 1000
54 | CN1C(=NC#N)NC2=C(C(=O)c3ccccc32)C1c1cccc(OCC2CC2)c1 (stereo not shown) [Compound 952] | > 1000
55 | COc1ccc(Br)c(C2NC(=O)NC3=C2C(=O)c2ccccc23)c1 (stereo not shown) [Compound 433] | > 1000
56 | COc1ccc(OC)c(C2NC(=O)NC3=C2C(=O)c2ccccc23)c1 (stereo not shown) [Compound 441] | > 1000
57 | O=C1NC2=C(C(=O)c3ccccc32)C(c2cccc3c2OC(F)(F)O3)N1 (stereo not shown) [Compound 440] | > 1000
58 | N#Cc1cccc(C2NC(=O)NC3=C2C(=O)c2ccccc23)c1 (stereo not shown) [Compound 430] | > 1000
59 | CCOc1cccc(C2NC(=O)N(CC(=O)O)C3=C2C(=O)c2ccccc23)c1 (stereo not shown) [Compound 610] | > 1000
60 | CCOc1cccc(C2NC(=O)NC3=C2C(=O)c2cccnc23)c1 (stereo not shown) [Compound 902] | 100 to 500
61 | N#Cc1cccc(C2NC(=S)NC3=C2C(=O)c2ccccc23)c1 (stereo not shown) [Compound 307] | < 100
62 | C=CCOc1cccc(C2NC(=NC#N)N(Cc3ccccc3)C3=C2C(=O)c2ccccc23)c1 (stereo not shown) [Compound 961] | > 1000
63 | CCOc1cncc(C2NC(=O)NC3=C2C(=O)c2ccccc23)c1 (stereo not shown) [Compound 503] | > 1000
64 | COc1cccc(C2NC(=O)N(C)C3=C2C(=O)c2ccccc23)c1 (stereo not shown) [Compound 622] | 100 to 500
